Consider 4 compounds from patent publication US20110207751A1, “HETEROCYCLIC COMPOUNDS AND USES AS ANTICANCER AGENTS” (priority 2010, published 2011).

Assay [1] deals with MKN45 human gastric-intestinal cancer xenograft. Kind of assay: In vivo antitumor efficacy, MKN45 xenograft. Details: species or system BALB/c immunodeficient nude mice. Conditions: for Tumor inhibition rate %: by tumor weight. As to the method: To evaluate the in vivo anticancer efficacy of COMPOUND O, MKN45 human gastric-intestinal cancer xenograft models in immunodeficient nude mice was tested. All the mouse models are maintained in the Pharmacology Lab of ACEA Bio (Hangzhou) CO., Ltd. The BALB/c immunodeficient nude mice were purchased from Shanghai SLAC Laboratory Animal, certification number: SCXKA (Shanghai) 2007-0005. The mouse weight was 19±1 g. Only female mice were used in this study. The numbers of animals tested were as follow: 7 for each dose group, 7 for positive control group and 7 for negative control group.
Test Control. For negative control, each mouse was administered orally with the solvent only having the same volume and same concentration as those used in COMPOUND O test, 120 mg/kg once every other day (qod) for 18 days. […]
Preparation an Administration of Test Compounds. COMPOUND O was dissolved in 25% phospholipid (S75) and 75% polyvinylpyrrolidone (PL-PVP) then further diluted to 8 mg/ml in 0.9% NaCl aqueous solution. Different dosages of COMPOUND O between 120 mg/kg qod (once every other day) and 160 mg/kg q3d (once every 3 days) were used in the study.
Preparation of tumor cells for transplantation and determination of compound efficacy. To prepare the tumor cells for MKN45 human gastric-intestinal cancer xenograft model, the fast grown tumors were first removed from the transplanted tumor mice, the tumor tissues were dissected to 1-2 mm^3 in dimension. These micro-tumors were then subcutaneously injected into the auxiliary region (right-side) of each mouse. After the inoculated tumors grew to a certain size (60-80 mm^3) in the nude mice, the mice were randomized into different dosing groups and subjected to compound treatment. Between 2-3 weeks after the first dosing, mice were sacrificed and the transplanted tumors were removed from experimental mice. Each removed solid tumor was weighed; the tumor inhibition rate in each dosage group was calculated according to the formula:
Tumor inhibition rate %=(average weight of tumor in the negative control group−average weight of tumor in the compound treated group)/average weight of tumor in the negative control group×100 (1)
All used materials including animal food, animal cage, supporting materials and apparatus contacted by animals, were high-pressure sterilized. Nude mice were maintained in laminar flow shelves under SPF condition. After tumor transplantation, mouse weight and tumor size in each compound dosage group were dynamically monitored and plotted. The tumor size was determined by measuring the major axis (a) and minor axis (b) of the tumor, and tumor volume was calculated according to the formula: […]

The test system of assay [2] is microtubule network in A549 cells. Briefly: Microtubule organization in A549 cells. The format is cell-based, human. The following applies: 20 hr treatment.
Assay [3] has as its system H1838 cells (human non-small cell lung cancer cell line). Briefly: Inhibition of cell proliferation, xCelligence cell index. The format is cell-based. The following applies: NCI-H1838, 72 hr post compound treatment, read-out: calculated IC50. The text has this: The biological activity of compounds disclosed herein was monitored and profiled using the Real-Time Cell Electronic Sensing (RT-CES®) system from ACEA Biosciences, Inc. The RT-CES system utilizes cell-substrate impedance technology to monitor cellular behavior inside tissue culture wells in a microtiter plate format. The technology features in the integration of molecular and cell biology with microelectronics and is based on the electronic detection of biological assay process. […]
For measurement of cell-substrate or cell-electrode impedance using RT-CES technology, microelectrodes having appropriate geometries are fabricated onto the bottom surfaces of microtiter plate or similar device, facing into the wells. […] When there are changes to the biological status of the cells analogue electronic readout signals are measured automatically and in real time, and are converted to digital signals for processing and for analysis. In a RT-CES system, a cell index (arbitrary representation of change in impedance) is automatically derived and provided based on measured electrode impedance values. […]
To quantify cell status based on the measured cell-electrode impedance, a parameter termed Cell Index is derived. Cell Index is a quantitative measure of the status of the cells in an electrode-containing well. […]

Counter-ions that a name gives are not always drawn.

The IC50 is the concentration that gives 50% inhibition.

As to `CCc1ccc(Nc2nc(-c3c(C)nc4sccn34)cs2)cc1` [COMPOUND O, 2-(4-ethylphenyl)amino-4-(6-methylimidazo[2,1-b]thiazol-5-yl)-thiazole monohydrobromide], in assay [1] (120 mg/kg ig × 9 qod), the “TV inhibition rate % T/C” value came out at 44.1%, the “Tumor volume (mm^3) End” value was 905 ± 403 mm^3, the “Tumor volume (mm^3) Start” value amounted to 69.58 ± 11 mm^3 and the “Tumor weight (g) x ± SD” value turned out to be 0.835 ± 0.41 g. Besides, the “Tumor inhibition rate %” value in assay [1] (120 mg/kg ig × 9 qod) was found to be 58.0%. Further, in assay [1] (160 mg/kg ig × 6 q3d), the “TV inhibition rate % T/C” value came out at 45.3%, the “Tumor volume (mm^3) End” value is reported as 904 ± 347 mm^3, the “Tumor volume (mm^3) Start” value stood at 67.75 ± 25 mm^3 and the “Tumor weight (g) x ± SD” value worked out at 0.881 ± 0.467 g. The “Tumor inhibition rate %” value in assay [1] (160 mg/kg ig × 6 q3d) amounted to 55.7%. The “effect on microtubule organization” value in assay [2] was “findings similar to those of vincristine-induced microtubule changes”. The IC50 in assay [3] was 11.8 nM.

Take `COc1cc([C@@H]2c3cc4c(cc3[C@@H](O[C@@H]3O[C@@H]5CO[C@@H](C)O[C@H]5[C@H](O)[C@H]3O)[C@H]3COC(=O)[C@H]23)OCO4)cc(OC)c1O` [Etoposide, reference compound]: in assay [1] (50 mg/kg ig × 6 q3d), the “TV inhibition rate % T/C” value came to 56.9%, the “Tumor volume (mm^3) End” value stood at 1164 ± 483 mm^3, the “Tumor volume (mm^3) Start” value is 69.46 ± 16 mm^3 and the “Tumor weight (g) x ± SD” value is 1.024 ± 0.345 g. Also, the “Tumor inhibition rate %” value in assay [1] (50 mg/kg ig × 6 q3d) was determined as 48.4%.

In the case of `CC(=O)O[C@H]1C(=O)[C@@]2(C)[C@H]([C@H](OC(=O)c3ccccc3)[C@]3(O)C[C@H](OC(=O)[C@H](O)[C@@H](NC(=O)c4ccccc4)c4ccccc4)C(C)=C1C3(C)C)[C@]1(OC(C)=O)CO[C@@H]1C[C@@H]2O` [paclitaxel], the “effect on microtubule organization” value in assay [2] is given as “microtubule polymerization with an increasing in the density of cellular microtubules”.

Turning to `CC[C@]1(O)C[C@H]2CN(CCc3c([nH]c4ccccc34)[C@@](C(=O)OC)(c3cc4c(cc3OC)N(C=O)[C@H]3[C@@](O)(C(=O)OC)[C@H](OC(C)=O)[C@]5(CC)C=CCN6CC[C@]43[C@@H]65)C2)C1` [vincristine], the IC50 in assay [3] was 3.16 nM.
